Source: PubChem BioAssay (NCI)
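Abbreviation: GI50, concentration required for 50% inhibition of growth. TGI denotes the concentration required for complete inhibition of growth.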

Experiments:
Assay in all cases: NCI anticancer screen, dose series, 384-well format
KM12 colon = tested on: KM12 colon
SK-MEL-2 melanoma = tested on: SK-MEL-2 melanoma
MDA-MB-468 breast = tested on: MDA-MB-468 breast
MCF7 breast = tested on: MCF7 breast
SF-539 CNS = tested on: SF-539 CNS
NCI-H460 NSCLC = tested on: NCI-H460 NSCLC
HT29 colon = tested on: HT29 colon
SF-268 CNS = tested on: SF-268 CNS
COLO 205 colon = tested on: COLO 205 colon
U251 glioblastoma = tested on: U251 glioblastoma
BT-549 breast = tested on: BT-549 breast
SNB-19 CNS = tested on: SNB-19 CNS
NCI-H23 lung = tested on: NCI-H23 lung
SR leukemia = tested on: SR leukemia
M14 melanoma = tested on: M14 melanoma
CAKI-1 renal = tested on: CAKI-1 renal
OVCAR-3 ovarian = tested on: OVCAR-3 ovarian
A549 NSCLC = tested on: A549 NSCLC
OVCAR-8 ovarian = tested on: OVCAR-8 ovarian
SF-295 CNS = tested on: SF-295 CNS
HL-60(TB) leukemia = tested on: HL-60(TB) leukemia
SK-MEL-5 melanoma = tested on: SK-MEL-5 melanoma
MDA-MB-435 melanoma = tested on: MDA-MB-435 melanoma
NCI-H226 lung = tested on: NCI-H226 lung
DU-145 prostate = tested on: DU-145 prostate
OVCAR-5 ovarian = tested on: OVCAR-5 ovarian
OVCAR-4 ovarian = tested on: OVCAR-4 ovarian
HS 578T breast = tested on: HS 578T breast

Compound: O=C1c2ccccc2-c2n[nH]c3cccc1c23
- TGI (KM12 colon): > 100 µM
- GI50 (SK-MEL-2 melanoma): 5.03 µM
- TGI (SK-MEL-2 melanoma): 17 µM
- GI50 (MDA-MB-468 breast): 2.72 µM
- TGI (MDA-MB-468 breast): 12.5 µM
- GI50 (MCF7 breast): 37.4 µM
- TGI (MCF7 breast): > 100 µM
- GI50 (SF-539 CNS): 8.72 µM
- TGI (SF-539 CNS): 97.4 µM
- GI50 (NCI-H460 NSCLC): 6.56 µM
- TGI (NCI-H460 NSCLC): 37.6 µM
- GI50 (HT29 colon): 11.4 µM
- TGI (HT29 colon): > 100 µM
- GI50 (SF-268 CNS): 5.72 µM
- TGI (SF-268 CNS): 57 µM
- GI50 (COLO 205 colon): 10.3 µM
- TGI (COLO 205 colon): 26 µM
- GI50 (U251 glioblastoma): 9.02 µM
- TGI (U251 glioblastoma): > 100 µM
- GI50 (BT-549 breast): 3.72 µM
- TGI (BT-549 breast): 49.7 µM
- GI50 (SNB-19 CNS): 45.1 µM
- TGI (SNB-19 CNS): > 100 µM
- GI50 (NCI-H23 lung): 19.8 µM
- TGI (NCI-H23 lung): > 100 µM
- GI50 (SR leukemia): 2.38 µM
- TGI (SR leukemia): 6.99 µM
- GI50 (M14 melanoma): 5.93 µM
- TGI (M14 melanoma): 58.9 µM
- GI50 (CAKI-1 renal): 3.39 µM
- TGI (CAKI-1 renal): 14.9 µM
- GI50 (OVCAR-3 ovarian): 20.2 µM
- TGI (OVCAR-3 ovarian): > 100 µM
- GI50 (A549 NSCLC): 15.8 µM
- TGI (A549 NSCLC): > 100 µM
- GI50 (OVCAR-8 ovarian): 22.1 µM
- TGI (OVCAR-8 ovarian): > 100 µM
- GI50 (SF-295 CNS): 34.1 µM
- TGI (SF-295 CNS): > 100 µM
- GI50 (HL-60(TB) leukemia): 10.4 µM
- TGI (HL-60(TB) leukemia): > 100 µM
- GI50 (SK-MEL-5 melanoma): 5.77 µM
- TGI (SK-MEL-5 melanoma): 26.6 µM
- GI50 (MDA-MB-435 melanoma): 17.4 µM
- TGI (MDA-MB-435 melanoma): > 100 µM
- GI50 (NCI-H226 lung): 2.26 µM
- TGI (NCI-H226 lung): 11.7 µM
- GI50 (DU-145 prostate): 14.7 µM
- TGI (DU-145 prostate): > 100 µM
- GI50 (OVCAR-5 ovarian): 17.8 µM
- TGI (OVCAR-5 ovarian): > 100 µM
- GI50 (OVCAR-4 ovarian): 32 µM
- TGI (OVCAR-4 ovarian): > 100 µM
- GI50 (HS 578T breast): 5.63 µM
- TGI (HS 578T breast): 71.2 µM
